In patent US10570099B2, “Salts of an epidermal growth factor receptor kinase inhibitor” (Celgene CAR LLC, priority 2012, dated 2020):

Tests used:
[1] = Dog PK Study 1 (cross-over, fasted); type: in vivo, beagle dogs; conditions: fasted dogs, oral, 24.5-28.5 mg/kg QD
Protocol: Compound 1 free base and compound 2, as the Form I monohydrobromide (HBr) salt, were evaluated in a cross-over dog PK study. Compound 1 free base capsule consisted of compound 1 free base in Vitamin E TPGS and PEG 400 filled into a capsule. The Form I hydrobromide salt capsule consisted of Form I HBr alone filled into a capsule.
Compound 1 free base capsule and Form I HBr capsule were dosed orally at 28.5 and 24.5 mg/kg (as active) QD, respectively, to three fasted male non-naïve beagle dogs (body weight range: 10.1-10.8 kg) with a 5-day washout period. Approximately 5 mL of tap water was orally administered to encourage swallowing and ensure delivery of capsules into the stomach. Plasma samples were collected at pre-dose and 0.5, 1, 2, 4, 6, 8, 12 and 24 hours post dose. The plasma concentrations of compound 1 were determined by a liquid chromatography-tandem mass spectrometry (LC/MS/MS) method.

[2] = Hygroscopicity judged from TGA / water retained after drying; type: physicochemical
Protocol: For thermogravimetric analysis (TGA), approximately 5-10 mg of material was accurately weighed into an open aluminium pan and loaded into a simultaneous thermogravimetric/differential thermal analyser (TG/DTA) and held at room temperature. The sample was then heated at a rate of 10° C./min from 25° C. to 300° C. during which time the change in sample weight was recorded along with any differential thermal events (DTA). Nitrogen was used as the purge gas, at a flow rate of 100 cm^3/min.

[3] = Dog PK Study 2 (gastric pH adjustment, food effect); type: in vivo, beagle dogs; conditions: dogs, oral, 30 mg/kg QD, both low and high gastric pH conditions
Protocol: Compound 1 free base and compound 2, as the Form I monohydrobromide (HBr) salt, were evaluated in a cross-over dog PK study in which male dogs were pre-treated with either pentagastrin (to decrease gastric pH) or famotidine (to increase gastric pH) prior to oral dosing to control gastric pH. In addition, the effect of food on the systemic exposure to compound 1 was also evaluated in dogs receiving Form I HBr with pentagastrin pre-treatment. Compound 1 free base capsule consisted of compound 1 free base in Vitamin E TPGS and PEG 400 filled into a capsule. The Form I hydrobromide salt capsule consisted of Form I HBr alone filled into a capsule.
There was a minimum 6-day washout between dosing. On the day of dosing under fed condition, dogs were given 60 gram of a high fat diet (Harlan Teklad 2027C) and allowed to consume all of the food within 15-20 minutes. The animals were given a 10-minute rest period and then the capsule doses were administered. Plasma samples were collected at pre-dose and 0.5, 1, 2, 4, 6, 8, 12 and 24 hours post dose.

[4] = Administration to healthy volunteers (single dose PK study); type: in vivo, healthy male subjects; conditions: 50 mg dose, Regimen B
Excerpt: The primary objective of the study is to compare the compound 1 pharmacokinetic (PK) profiles of single doses of Form I monohydrobromide formulations with that of the compound 1 free base in healthy adult males.
This is a single centre non-randomised, open-label, single dose study in healthy male subjects. Subjects will be screened for eligibility to participate in the study up to 28 days before dosing. The subjects will be admitted to the clinical unit at approximately 09:00 in the morning on the day prior to dosing (Day-1) and will remain on site until 24 h after each dose. Each subject will attend a follow-up visit 4 to 6 days after the final dose.
One group of 12 subjects will be dosed in an effort to obtain the data described above. Each subject will receive the following formulations in a crossover investigation. Dosing will be separated by at least 7 days. • Regimen A: 150 mg compound 1 (free base) capsule • Regimen B: 50 mg as active compound 2 (Form I HBr) tablet formulation • Regimen C: ≤150 mg as active compound 2 (Form I HBr) tablet formulation
All formulations will be dosed in the morning, following an overnight fast. Subjects will be allowed water up to 2 h before the scheduled dosing time and will be provided with 240 mL of water at 2 h post-dose. […]
Plasma concentration data will be tabulated and plotted for each subject for whom concentrations are quantifiable.

[5] = Salt disproportionation study (slurry in deionized water); type: physicochemical; conditions: deionized water slurry
Protocol: The pH of the supernatant was also monitored.
The hydrobromide salt was slurried in deionised water at ambient temperature (ca. 22° C.). […] The pH of the supernatant was also monitored.

[6] = Slurry in pH 6.2 aqueous medium (conversion to unknown solid form); type: physicochemical; conditions: slurry in aqueous pH 6.2 medium, ambient, XRPD
Protocol: In attempts to characterize this form, as well as establish the rate of conversion to this form while slurrying the material, the following experiments were carried out. Initially, approximately 100 mg of the hydrobromide (1 equiv.) material was slurried in a pH 6.2 aqueous solution at ambient and XRPD analysis was carried out at time points 5 min., 1 hr, 2 hrs, 4 hrs and 8 hrs. Further analysis was then also carried out on the converted material.

[7] = 1 week stability of primary screen salts at 40° C./75% RH and 80° C. (open vials, XRPD); type: physicochemical
Protocol: (open vials). TGA was carried out after the stability studies for samples containing sufficient material.

[8] = 1 week stability study (XRPD and HPLC); type: physicochemical; conditions: 1 week, listed as hydrobromide salt
Protocol: (§1) Resulting solids were analysed by XRPD and HPLC to establish if any changes had occurred.
as §1
The resulting solids were analysed by XRPD and HPLC to establish if any changes had occurred.

[9] = 40° C./75% RH, closed (crimped) vial

## Br.C=CC(=O)Nc1cccc(Nc2nc(Nc3ccc(N4CCN(C(C)=O)CC4)cc3OC)ncc2C(F)(F)F)c1 [Form I hydrobromide salt]
[1]
  compound 1 exposure (AUC and Cmax) compared to the free base form: significantly higher
[2]
  hygroscopicity (TGA, water retained at ambient conditions): slightly hygroscopic
[3]
  compound 1 exposure compared to the free base form: significantly higher
[4]
  patient-to-patient variability: less patient-to-patient variability
[5]; 1 hr
  pH of the supernatant: pH 1
[5]; 24 hrs
  pH of the supernatant: pH 1
[5]; 48 hrs
  pH of the supernatant: pH 1
[6]
  time of conversion to the unknown solid form: 2 to 4 h
[7]
  Stability 40° C./75% RH (open conditions): No form change, slight
  Stability 80° C. (open conditions): No Form change.
[8]; [9]
  HPLC purity after storage: 97.2%
  XRPD after storage: No polymorphic form changes observed
[8]; 40° C./75% RH, open vial
  HPLC purity after storage: 97.2%
  XRPD after storage: No polymorphic form changes observed
[8]; 80° C., open vial
  HPLC purity after storage: 97.1%
  XRPD after storage: No polymorphic form changes observed
